Data from patent US8829007B2 (priority 2009, dated 2014).

What follows are compounds tested on influenza A virus (A/PR/8/34) (assay: microbe, parasite or virus in culture). Settings: Influenza A virus, PR/8, MDCK, MDCK cells infected with A/PR/8/34, cell protection (CPE); read-out: IC50 (mean all).
Type: cell-based
`CC(C)(C)CC(=O)N1CCC[C@@H](CNc2nc(-c3c[nH]c4ncc(Cl)cc34)ncc2F)C1` [Compound 42, (S)-1-(3-((2-(5-chloro-1H-pyrrolo[2,3-b]pyridin-3-yl)-5-fluoropyrimidin-4-ylamino)methyl)piperidin-1-yl)-3,3-dimethylbutan-1-one] gave an IC50 greater than 20 µM. With `C[N+](C)(C)CC(=O)N1CCC[C@@H](CNc2nc(-c3c[nH]c4ncc(Cl)cc34)ncc2F)C1` [Compound 43, (S)-2-(3-((2-(5-chloro-1H-pyrrolo[2,3-b]pyridin-3-yl)-5-fluoropyrimidin-4-ylamino)methyl)piperidin-1-yl)-N,N,N-trimethyl-2-oxoethanaminium] the IC50 was greater than 20 µM. Compound `CN(C)CC(=O)N1CCC[C@@H](CNc2nc(-c3c[nH]c4ncc(Cl)cc34)ncc2F)C1` [Compound 46, (S)-1-(3-((2-(5-chloro-1H-pyrrolo[2,3-b]pyridin-3-yl)-5-fluoropyrimidin-4-ylamino)methyl)piperidin-1-yl)-2-(dimethylamino)ethanone] has an IC50 greater than 20 µM. In the case of `O=C(Cn1cnnn1)N1CCC[C@@H](CNc2nc(-c3c[nH]c4ncc(Cl)cc34)ncc2F)C1` [Compound 48, (S)-1-(3-((2-(5-chloro-1H-pyrrolo[2,3-b]pyridin-3-yl)-5-fluoropyrimidin-4-ylamino)methyl)piperidin-1-yl)-2-(1H-tetrazol-1-yl)ethanone], the IC50 is reported as greater than 20 µM. With `O=C(Cn1ccnc1)N1CCC[C@@H](CNc2nc(-c3c[nH]c4ncc(Cl)cc34)ncc2F)C1` [Compound 50, (S)-1-(3-((2-(5-chloro-1H-pyrrolo[2,3-b]pyridin-3-yl)-5-fluoropyrimidin-4-ylamino)methyl)piperidin-1-yl)-2-(1H-imidazol-1-yl)ethanone] the IC50 was greater than 20 µM. `O=C(O)CCCC(=O)N1CCC[C@H](CNc2nc(-c3c[nH]c4ncc(Cl)cc34)ncc2F)C1` [Compound 53, (R)-5-(3-((2-(5-chloro-1H-pyrrolo[2,3-b]pyridin-3-yl)-5-fluoropyrimidin-4-ylamino)methyl)piperidin-1-yl)-5-oxopentanoic acid] gave an IC50 of 5 to 20 µM. Work on `O=C(O)COCC(=O)N1CCC[C@H](CNc2nc(-c3c[nH]c4ncc(Cl)cc34)ncc2F)C1` [Compound 54, (R)-2-(2-(3-((2-(5-chloro-1H-pyrrolo[2,3-b]pyridin-3-yl)-5-fluoropyrimidin-4-ylamino)methyl)piperidin-1-yl)-2-oxoethoxy)ethanoic acid] yielded an IC50 of 5 to 20 µM. `O=C(c1ccccc1F)N1CCC[C@H](CNc2nc(-c3c[nH]c4ncc(Cl)cc34)ncc2F)C1` [Compound 58, (R)-(3-((2-(5-chloro-1H-pyrrolo[2,3-b]pyridin-3-yl)-5-fluoropyrimidin-4-ylamino)methyl)piperidin-1-yl)(2-fluorophenyl)methanone] gave an IC50 of less than 5 µM. `CC(=O)c1cccc(NC(=O)N2CCC[C@H](CNc3nc(-c4c[nH]c5ncc(Cl)cc45)ncc3F)C2)c1` [Compound 77, (R)-3-((2-(5-chloro-1H-pyrrolo[2,3-b]pyridin-3-yl)-5-fluoropyrimidin-4-ylamino)methyl)-N-(3-ethanoylphenyl)piperidine-1-carboxamide] was tested, and the IC50 was 5 to 20 µM. `O=C(Nc1cccc(C(F)(F)F)c1)N1CCC[C@H](CNc2nc(-c3c[nH]c4ncc(Cl)cc34)ncc2F)C1` [Compound 79, (R)-3-((2-(5-chloro-1H-pyrrolo[2,3-b]pyridin-3-yl)-5-fluoropyrimidin-4-ylamino)methyl)-N-(3-(trifluoromethyl)phenyl)piperidine-1-carboxamide] gave an IC50 of 5 to 20 µM. `O=C(O)c1nccnc1C(=O)N1CCC[C@H](CNc2nc(-c3c[nH]c4ncc(Cl)cc34)ncc2F)C1` [Compound 82, (R)-3-(3-((2-(5-chloro-1H-pyrrolo[2,3-b]pyridin-3-yl)-5-fluoropyrimidin-4-ylamino)methyl)piperidine-1-carbonyl)pyrazine-2-carboxylic acid] showed an IC50 greater than 20 µM. `O=C(O)[C@H]1C[C@H]1C(=O)N1CCC[C@H](CNc2nc(-c3c[nH]c4ncc(Cl)cc34)ncc2F)C1` [Compound 83, (1S,2R)-2-((R)-3-((2-(5-chloro-1H-pyrrolo[2,3-b]pyridin-3-yl)-5-fluoropyrimidin-4-ylamino)methyl)piperidine-1-carbonyl)cyclopropanecarboxylic acid] was tested, and the IC50 was greater than 20 µM. For `O=C(c1c(Cl)cccc1Cl)N1CCC[C@H](CNc2nc(-c3c[nH]c4ncc(Cl)cc34)ncc2F)C1` [Compound 96, (R)-(3-((2-(5-chloro-1H-pyrrolo[2,3-b]pyridin-3-yl)-5-fluoropyrimidin-4-ylamino)methyl)piperidin-1-yl)(2,6-dichlorophenyl)methanone], the IC50 was 5 to 20 µM. Work on `O=C(c1ccc2c(c1)OCO2)N1CCC[C@H](CNc2nc(-c3c[nH]c4ncc(Cl)cc34)ncc2F)C1` [Compound 103, (R)-benzo[d][1,3]dioxol-5-yl(3-((2-(5-chloro-1H-pyrrolo[2,3-b]pyridin-3-yl)-5-fluoropyrimidin-4-ylamino)methyl)piperidin-1-yl)methanone] yielded an IC50 of less than 5 µM. Work on `CC(C)(C)OC(=O)N1CCC[C@H](CNc2nc(-c3c[nH]c4ncc(N)cc34)ncc2F)C1` [Compound 114, (R)-tert-butyl 3-((2-(5-amino-1H-pyrrolo[2,3-b]pyridin-3-yl)-5-fluoropyrimidin-4-ylamino)methyl)piperidine-1-carboxylate] yielded an IC50 greater than 20 µM. For `N[C@@H]1CCCC[C@H]1Nc1nc(-c2c[nH]c3ncc(Cl)cc23)ncc1Cl` [Compound 115, (1R,2R)—N1-(5-chloro-2-(5-chloro-1H-pyrrolo[2,3-b]pyridin-3-yl)pyrimidin-4-yl)cyclohexane-1,2-diamine], the IC50 was greater than 20 µM. `Cc1cnc(-c2c[nH]c3ncc(Cl)cc23)nc1NC1CCCCC1N` (stereo not shown) [Compound 116, N1-(2-(5-chloro-1H-pyrrolo[2,3-b]pyridin-3-yl)-5-methylpyrimidin-4-yl)cyclohexane-1,2-diamine] was tested, and the IC50 was greater than 20 µM. With `CCOC(=O)CCNC(=O)N1CCC[C@H](CNc2nc(-c3c[nH]c4ncc(Cl)cc34)ncc2F)C1` [Compound 118, (R)-ethyl 3-(3-((2-(5-chloro-1H-pyrrolo[2,3-b]pyridin-3-yl)-5-fluoropyrimidin-4-ylamino)methyl)piperidine-1-carboxamido)propanoate] the IC50 was 5 to 20 µM. Compound `Cc1csc(NC(=O)N2CCC[C@H](CNc3nc(-c4c[nH]c5ncc(Cl)cc45)ncc3F)C2)c1` [Compound 130, (R)-3-((2-(5-chloro-1H-pyrrolo[2,3-b]pyridin-3-yl)-5-fluoropyrimidin-4-ylamino)methyl)-N-(4-methylthiophen-2-yl)piperidine-1-carboxamide] has an IC50 of less than 5 µM. Compound `COC(CN1CCC[C@@H](CNc2nc(-c3c[nH]c4ncc(Cl)cc34)ncc2F)C1)OC` [Compound 132, (S)-2-(5-chloro-1H-pyrrolo[2,3-b]pyridin-3-yl)-N-((1-(2,2-dimethoxyethyl)piperidin-3-yl)methyl)-5-fluoropyrimidin-4-amine] has an IC50 greater than 20 µM. For `OCCN1CCC[C@@H](CNc2nc(-c3c[nH]c4ncc(Cl)cc34)ncc2F)C1` [Compound 133, (S)-2-(3-((2-(5-chloro-1H-pyrrolo[2,3-b]pyridin-3-yl)-5-fluoropyrimidin-4-ylamino)methyl)piperidin-1-yl)ethanol], the IC50 was greater than 20 µM. `Fc1cnc(-c2c[nH]c3ncc(Cl)cc23)nc1NC[C@@H]1CCCN(CC2CCCCC2)C1` [Compound 134, (S)-2-(5-chloro-1H-pyrrolo[2,3-b]pyridin-3-yl)-N-((1-(cyclohexylmethyl)piperidin-3-yl)methyl)-5-fluoropyrimidin-4-amine] was tested, and the IC50 was 5 to 20 µM. With `C[C@H](CO)CN1CCCC(CNc2nc(-c3c[nH]c4ncc(Cl)cc34)ncc2F)C1` (stereo partly shown) [Compound 135] the IC50 was greater than 20 µM. In the case of `Cc1cccc(CN2CCC[C@@H](CNc3nc(-c4c[nH]c5ncc(Cl)cc45)ncc3F)C2)c1` [Compound 137, (S)-2-(5-chloro-1H-pyrrolo[2,3-b]pyridin-3-yl)-5-fluoro-N-((1-(3-methylbenzyl)piperidin-3-yl)methyl)pyrimidin-4-amine], the IC50 is reported as greater than 20 µM. Work on `Cc1ccccc1CN1CCC[C@@H](CNc2nc(-c3c[nH]c4ncc(Cl)cc34)ncc2F)C1` [Compound 139, (S)-2-(5-chloro-1H-pyrrolo[2,3-b]pyridin-3-yl)-5-fluoro-N-((1-(2-methylbenzyl)piperidin-3-yl)methyl)pyrimidin-4-amine] yielded an IC50 greater than 20 µM. `CC(C)(C)C(=O)CN1CCC[C@@H](CNc2nc(-c3c[nH]c4ncc(Cl)cc34)ncc2F)C1` [Compound 140, (S)-1-(3-((2-(5-chloro-1H-pyrrolo[2,3-b]pyridin-3-yl)-5-fluoropyrimidin-4-ylamino)methyl)piperidin-1-yl)-3,3-dimethylbutan-2-one] gave an IC50 greater than 20 µM.

Same assay, conditions: Influenza A virus, PR/8, MDCK; read-out: IC50 (mean all)
Work on `COC(=O)c1ccc(OC(=O)N2CCC[C@H](CNc3nc(-c4c[nH]c5ncc(Cl)cc45)ncc3F)C2)cc1` [Compound 63, (R)-4-(methoxycarbonyl)phenyl 3-((2-(5-chloro-1H-pyrrolo[2,3-b]pyridin-3-yl)-5-fluoropyrimidin-4-ylamino)methyl)piperidine-1-carboxylate] yielded an IC50 greater than 20 µM. Work on `Cc1ccc(OC(=O)N2CCC[C@H](CNc3nc(-c4c[nH]c5ncc(Cl)cc45)ncc3F)C2)cc1` [Compound 71, (R)-p-tolyl 3-((2-(5-chloro-1H-pyrrolo[2,3-b]pyridin-3-yl)-5-fluoropyrimidin-4-ylamino)methyl)piperidine-1-carboxylate] yielded an IC50 of 5 to 20 µM. In the case of `O=C(Oc1cccc(C(F)(F)F)c1)N1CCC[C@H](CNc2nc(-c3c[nH]c4ncc(Cl)cc34)ncc2F)C1` [Compound 72, (R)-3-(trifluoromethyl)phenyl 3-((2-(5-chloro-1H-pyrrolo[2,3-b]pyridin-3-yl)-5-fluoropyrimidin-4-ylamino)methyl)piperidine-1-carboxylate], the IC50 is reported as 5 to 20 µM. `O=C(Oc1ccc(F)cc1)N1CCC[C@H](CNc2nc(-c3c[nH]c4ncc(Cl)cc34)ncc2F)C1` [Compound 73, (R)-4-fluorophenyl 3-((2-(5-chloro-1H-pyrrolo[2,3-b]pyridin-3-yl)-5-fluoropyrimidin-4-ylamino)methyl)piperidine-1-carboxylate] showed an IC50 of 5 to 20 µM. `COC(=O)/C=C/CN1CCC[C@@H](CNc2nc(-c3c[nH]c4ncc(Cl)cc34)ncc2F)C1` [Compound 138, (S,E)-methyl 4-(3-((2-(5-chloro-1H-pyrrolo[2,3-b]pyridin-3-yl)-5-fluoropyrimidin-4-ylamino)methyl)piperidin-1-yl)but-2-enoate] was tested, and the IC50 was greater than 20 µM.
